Assay results as given in patent US6339045B1, “N-(unsubstituted or substituted)-4-substituted-6-(unsubstituted or substituted)phenoxy-2-pyridinecarboxamides or thiocarboxamides, processes for producing the same, and herbicides” (Kureha Kagaku Kogyo Kabushiki Kaisha, priority 1995, dated 2002).

Tests used:
[1] = tested on: black nightshade (Solanum nigrum); experiment: Herbicidal effect by foliage and soil treatment; assay type: in vivo; conditions: 10 g ai/10a, evaluated after 14 days
Outline: (§1)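 Seedlings grown in granular soil in a 19–25 °C greenhouse to the cotyledon–two-leaf stage were sprayed over foliage and soil with compound in Tween 20/water at a set application rate. Growth was scored on a rating scale against untreated plants after 14 days.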

[2] = tested on: velvetleaf (Abutilon theophrasti); experiment: Herbicidal effect by foliage and soil treatment; assay type: in vivo; conditions: 10 g ai/10a, evaluated after 14 days
Outline: as §1

[3] = tested on: kediock (Sinapis arvensis); experiment: Herbicidal effect by foliage and soil treatment; assay type: in vivo; conditions: 10 g ai/10a, evaluated after 14 days
Outline: as §1

[4] = tested on: redroot pigweed (Amaranthus retroflexus); experiment: Herbicidal effect by foliage and soil treatment; assay type: in vivo; conditions: 10 g ai/10a, evaluated after 14 days
Outline: as §1

[5] = tested on: common blackjack (Bidens pilosa); experiment: Herbicidal effect by foliage and soil treatment; assay type: in vivo; conditions: 10 g ai/10a, evaluated after 14 days
Outline: as §1

[6] = tested on: wild chamomile (Matricaria chamomilla); experiment: Herbicidal effect by foliage and soil treatment; assay type: in vivo; conditions: 10 g ai/10a, evaluated after 14 days
Outline: as §1

[7] = tested on: cleavers (Galium aparine); experiment: Herbicidal effect by foliage and soil treatment; assay type: in vivo; conditions: 10 g ai/10a, evaluated after 14 days
Outline: as §1

[8] = tested on: sicklepod (Cassia obtusifolia); experiment: Herbicidal effect by foliage and soil treatment; assay type: in vivo; conditions: 10 g ai/10a, evaluated after 14 days
Outline: as §1

[9] = tested on: ivyleafspeedwell (Veronica hederaefolia); experiment: Herbicidal effect by foliage and soil treatment; assay type: in vivo; conditions: 10 g ai/10a, evaluated after 14 days
Outline: as §1

[10] = tested on: common chickweed (Stellaria media); experiment: Herbicidal effect by foliage and soil treatment; assay type: in vivo; conditions: 10 g ai/10a, evaluated after 14 days
Outline: as §1

[11] = tested on: field bindweed (Convolvulus arvensis); experiment: Herbicidal effect by foliage and soil treatment; assay type: in vivo; conditions: 10 g ai/10a, evaluated after 14 days
Outline: as §1

melting point [°C]	Compound	herbicidal activity rating, SN (Solanum nigrum) [1]	herbicidal activity rating, AT (Abutilon theophrasti) [2]	herbicidal activity rating, SA (Sinapis arvensis) [3]	herbicidal activity rating, AR (Amaranthus retroflexus) [4]	herbicidal activity rating, BP (Bidens pilosa) [5]	herbicidal activity rating, MC (Matricaria chamomilla) [6]	herbicidal activity rating, GA (Galium aparine) [7]	herbicidal activity rating, CO (Cassia obtusifolia) [8]	herbicidal activity rating, VH (Veronica hederaefolia) [9]	herbicidal activity rating, SM (Stellaria media) [10]	herbicidal activity rating, CA (Convolvulus arvensis) [11]
92 to 94	CCS(=O)(=O)CCNC(=O)c1cc(OC)cc(Oc2cccc(C(F)(F)F)c2)n1 [Compound I-68, N-{2-(ethylsulfonyl)ethyl}-4-methoxy-6-{3-(trifluoromethyl)phenoxy}-2-pyridine carboxamide]	5 (percentage of weeds killed was not less than 80%)	5 (percentage of weeds killed was not less than 80%)	5 (percentage of weeds killed was not less than 80%)	5 (percentage of weeds killed was not less than 80%)	4 (percentage of weeds killed was not less than 60% and less than 80%)	2 (percentage of weeds killed was not less than 20% and less than 40%)	5 (percentage of weeds killed was not less than 80%)	5 (percentage of weeds killed was not less than 80%)	5 (percentage of weeds killed was not less than 80%)	4 (percentage of weeds killed was not less than 60% and less than 80%)	4 (percentage of weeds killed was not less than 60% and less than 80%)
	COc1cc(Oc2cccc(C(F)(F)F)c2)nc(C(=O)NC2CCCC2)c1 [Compound I-50]	5 (percentage of weeds killed was not less than 80%)	4 (percentage of weeds killed was not less than 60% and less than 80%)	5 (percentage of weeds killed was not less than 80%)	5 (percentage of weeds killed was not less than 80%)	5 (percentage of weeds killed was not less than 80%)	5 (percentage of weeds killed was not less than 80%)	5 (percentage of weeds killed was not less than 80%)	4 (percentage of weeds killed was not less than 60% and less than 80%)	5 (percentage of weeds killed was not less than 80%)	5 (percentage of weeds killed was not less than 80%)	5 (percentage of weeds killed was not less than 80%)
	COc1cc(Oc2cccc(C(F)(F)F)c2)nc(C(=O)NCCCS(C)(=O)=O)c1 [Compound I-77]	5 (percentage of weeds killed was not less than 80%)	5 (percentage of weeds killed was not less than 80%)	5 (percentage of weeds killed was not less than 80%)	5 (percentage of weeds killed was not less than 80%)	4 (percentage of weeds killed was not less than 60% and less than 80%)	3 (percentage of weeds killed was not less than 40% and less than 60%)	5 (percentage of weeds killed was not less than 80%)	5 (percentage of weeds killed was not less than 80%)	5 (percentage of weeds killed was not less than 80%)	4 (percentage of weeds killed was not less than 60% and less than 80%)	4 (percentage of weeds killed was not less than 60% and less than 80%)
	COc1cc(Oc2cccc(C(F)(F)F)c2)nc(C(N)=O)c1 [Compound I-123, 4-methoxy-6-{3-(trifluoromethyl)phenoxy}-2-pyridine carboxamide]	5 (percentage of weeds killed was not less than 80%)	3 (percentage of weeds killed was not less than 40% and less than 60%)	5 (percentage of weeds killed was not less than 80%)	5 (percentage of weeds killed was not less than 80%)	2 (percentage of weeds killed was not less than 20% and less than 40%)	1 (percentage of weeds killed was less than 20%)	5 (percentage of weeds killed was not less than 80%)	2 (percentage of weeds killed was not less than 20% and less than 40%)	5 (percentage of weeds killed was not less than 80%)	5 (percentage of weeds killed was not less than 80%)	4 (percentage of weeds killed was not less than 60% and less than 80%)
	CC(C)NC(=O)c1cc(N(C)Cc2ccccc2)cc(Oc2cccc(C(F)(F)F)c2)n1 [Compound I-58, N-(i-propyl)-4-{methyl(phenylmethyl)amino}-6-{3-(trifluoromethyl)phenoxy}-2-pyridine carboxamide]	5 (percentage of weeds killed was not less than 80%)	4 (percentage of weeds killed was not less than 60% and less than 80%)	5 (percentage of weeds killed was not less than 80%)	5 (percentage of weeds killed was not less than 80%)	2 (percentage of weeds killed was not less than 20% and less than 40%)	3 (percentage of weeds killed was not less than 40% and less than 60%)	5 (percentage of weeds killed was not less than 80%)	5 (percentage of weeds killed was not less than 80%)	5 (percentage of weeds killed was not less than 80%)	4 (percentage of weeds killed was not less than 60% and less than 80%)	5 (percentage of weeds killed was not less than 80%)
	COc1cc(Oc2cccc(OC(F)F)c2)nc(C(=O)NC(C)C)c1 [Compound I-38]	5 (percentage of weeds killed was not less than 80%)	4 (percentage of weeds killed was not less than 60% and less than 80%)	5 (percentage of weeds killed was not less than 80%)	5 (percentage of weeds killed was not less than 80%)	2 (percentage of weeds killed was not less than 20% and less than 40%)	4 (percentage of weeds killed was not less than 60% and less than 80%)	5 (percentage of weeds killed was not less than 80%)	4 (percentage of weeds killed was not less than 60% and less than 80%)	5 (percentage of weeds killed was not less than 80%)	4 (percentage of weeds killed was not less than 60% and less than 80%)	4 (percentage of weeds killed was not less than 60% and less than 80%)
	COc1cc(Oc2cccc(C(F)(F)F)c2)nc(C(=O)NCCF)c1 [Compound I-74]	5 (percentage of weeds killed was not less than 80%)	5 (percentage of weeds killed was not less than 80%)	5 (percentage of weeds killed was not less than 80%)	5 (percentage of weeds killed was not less than 80%)	5 (percentage of weeds killed was not less than 80%)	5 (percentage of weeds killed was not less than 80%)	5 (percentage of weeds killed was not less than 80%)	5 (percentage of weeds killed was not less than 80%)	5 (percentage of weeds killed was not less than 80%)	5 (percentage of weeds killed was not less than 80%)	5 (percentage of weeds killed was not less than 80%)
	COc1cc(Oc2cccc(C(F)(F)F)c2)nc(C(=O)NCC#N)c1 [Compound I-84, N-{(2-cyano)methyl}-4-methoxy-6-{3-(trifluoromethyl)phenoxy}-2-pyridine carboxamide]	5 (percentage of weeds killed was not less than 80%)	5 (percentage of weeds killed was not less than 80%)	5 (percentage of weeds killed was not less than 80%)	5 (percentage of weeds killed was not less than 80%)	5 (percentage of weeds killed was not less than 80%)	2 (percentage of weeds killed was not less than 20% and less than 40%)	5 (percentage of weeds killed was not less than 80%)	5 (percentage of weeds killed was not less than 80%)	5 (percentage of weeds killed was not less than 80%)	4 (percentage of weeds killed was not less than 60% and less than 80%)	4 (percentage of weeds killed was not less than 60% and less than 80%)
